Structures are written as SMILES. The source made the active and inactive calls. The rule behind the calls is not given here. Some results are limits rather than exact numbers.

One test deals with Mus musculus. The test is described as follows: Inhibition of inflammatory bowel disease-associated growth retardation in MDR1a-knockout mouse at 50 mg/kg, sc dosed twice daily for 14 consecutive weeks starting at age 10 weeks. The test is classed as functional, organism-based.
Test [1] addresses T1, C-C chemokine receptor type 9 (Homo sapiens, UniProt P51686).
T1 sequence (P51686 whole entry): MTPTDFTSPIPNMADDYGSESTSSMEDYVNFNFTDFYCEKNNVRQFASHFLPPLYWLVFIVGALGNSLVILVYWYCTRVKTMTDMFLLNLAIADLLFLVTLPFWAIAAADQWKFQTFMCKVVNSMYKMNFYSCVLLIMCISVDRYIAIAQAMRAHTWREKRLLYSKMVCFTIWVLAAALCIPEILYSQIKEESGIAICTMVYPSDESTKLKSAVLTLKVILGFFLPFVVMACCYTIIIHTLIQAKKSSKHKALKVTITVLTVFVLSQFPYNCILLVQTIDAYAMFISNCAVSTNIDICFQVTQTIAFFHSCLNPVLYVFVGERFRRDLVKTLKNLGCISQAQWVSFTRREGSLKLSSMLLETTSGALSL
The test is described as follows: Antagonist activity against CCR9 in human MOLT4 cells assessed as inhibition of human recombinant TECK-induced calcium response pre-treated before TECK stimulation by Flou-4-AM dye based FLIPR assay. It counts as functional, cell-based, MOLT-4.

Regarding `CC(C)(C)c1ccc(S(=O)(=O)Nc2ccc(Cl)cc2C(=O)c2ccncc2)cc1`, the result in the test with Mus musculus was Active. Besides, the IC50 in test [1] is less than 1000 nM.

The record behind these values is ChEMBL document CHEMBL3714750, “Aryl sulfonamides” (2008).
